In patent US20230183179A1, “NOVEL CELL METABOLISM MODULATING COMPOUNDS AND USES THEREOF” (CRESCENTA BIOSCIENCES, priority 2020, published 2023):

Legend:
[1] = system: differentiated 3T3-L1 mouse adipocyte cells; assay: Adipocyte glucose consumption in differentiated 3T3-L1 cells (colorimetric glucose assay of the medium); format: cell-based; conditions: 3T3-L1, 24 h, compound 10 μM, loss of glucose from culture medium, mean fold change (compound/DMSO)
In short: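 Differentiated 3T3-L1 mouse adipocytes (rosiglitazone/dexamethasone/IBMX/insulin induction, day 11) treated 24 h with compounds at 10 μM, 0.1% DMSO final. Medium glucose measured colorimetrically; consumption taken as glucose loss from medium versus cell-free control, expressed as mean fold change compound/DMSO ±SD.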

[2] = target: T1, His6 tagged human recombinant FABP4 (Homo sapiens, UniProt P15090); assay: FABP4 TR-FRET assay: displacement of fluorescent fatty acid BODIPY FL C12; conditions: inhibition of BODIPY FL C12 binding to His6-FABP4; 1.2 μL of 1.085 mM compound in DMSO per well; triplicates, mean percent inhibition
T1 construct: purchased Cayman Chemicals 10009549
In short: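 TR-FRET displacement of BODIPY FL C12 from His6-FABP4 bound by Tb-anti-His6 antibody, in Tris pH 7.4 buffer with γ-globulins, NP-40 and DTT; compound stock 1.085 mM in DMSO. Read after 10 min at room temperature as 520/615 nm ratio; mean % inhibition versus DMSO from triplicates.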

T1 sequence (P15090 whole entry): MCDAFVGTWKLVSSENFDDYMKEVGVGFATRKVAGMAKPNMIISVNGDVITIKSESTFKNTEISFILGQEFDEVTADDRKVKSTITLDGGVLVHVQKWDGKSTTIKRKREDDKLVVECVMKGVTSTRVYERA

SMILES | fold induction at 10 µM [1] | inhibition at 1085 µM (stock) [2]
CCCCCCc1ccc2nc(N(C)CC(=O)O)c(C)c(N3CCOCC3)c2c1 [2-{[6-hexyl-3-methyl-4-(morpholin-4-yl)quinolin-2-yl](methyl)amino}acetic acid] | 1.17 | 93.8%
CN(CC(=O)O)c1cc(-c2ccccc2)c2cc(CCc3ccccc3Cl)ccc2n1 [2-({6-[2-(2-chlorophenyl)ethyl]-4-phenylquinolin-2-yl}(methyl)amino)acetic acid] | 1.26 | 30.1%
COc1ccc(CCc2ccc3nc(N(C)CC(=O)O)cc(-c4ccccc4)c3c2)cc1 [2-({6-[2-(4-methoxyphenyl)ethyl]-4-phenylquinolin-2-yl}(methyl)amino)acetic acid] | 1.26 | 15%
O=C(O)COc1cc(-c2ccccc2)c2cc(Br)ccc2n1 [2-[(6-bromo-4-phenylquinolin-2-yl)oxy]acetic acid] | 1.01 | 35%
CCCCc1ccc2nc(OCC(=O)O)cc(-c3cccc(C(N)=O)c3)c2c1 [2-{[6-butyl-4-(3-carbamoylphenyl)quinolin-2-yl]oxy}acetic acid] | 1.15 | 54.5%
CCCCCCc1ccc2nc(N3CCCC3C(=O)O)cc(-c3ccccc3)c2c1 (stereo not shown) [1-(6-hexyl-4-phenylquinolin-2-yl)pyrrolidine-2-carboxylic acid] | 1.09 | 67.5%
O=C1NC(=O)C(Cc2cc(-c3ccccc3)c3cc(CCc4ccccc4)ccc3n2)S1 (stereo not shown) [5-{[4-phenyl-6-(2-phenylethyl)quinolin-2-yl]methyl}-1,3-thiazolidine-2,4-dione] | 1.45 | 73.5%
CN(CC(=O)NCC(=O)O)c1cc(-c2ccccc2)c2cc(Cl)ccc2n1 [2-{2-[(6-chloro-4-phenylquinolin-2-yl)(methyl)amino]acetamido}acetic acid] | 1.08 | 103%
CCCCc1ccc2nc(N(C)CC(C)C(=O)O)cc(-c3ccc(F)cc3)c2c1 (stereo not shown) [3-{[6-butyl-4-(4-fluorophenyl)quinolin-2-yl](methyl)amino}-2-methylpropanoic acid] | 1.34 | 74%
CCCCCCc1ccc2nc(N(C)CC(C)C(=O)O)cc(-c3ccccc3)c2c1 (stereo not shown) [3-[(6-hexyl-4-phenylquinolin-2-yl)(methyl)amino]-2-methylpropanoic acid] | 1.31 | 89.7%
CCCCc1ccc2nc(OCC(=O)O)cc(-c3cccc(C#N)c3)c2c1 [2-{[6-butyl-4-(3-cyanophenyl)quinolin-2-yl]oxy}acetic acid] | 1.12 | 36.2%
CN(CC(=O)O)c1cc(-c2ccccc2)c2cc(CCN3CCCCC3)ccc2n1 [2-[methyl({4-phenyl-6-[2-(piperidin-1-yl)ethyl]quinolin-2-yl})amino]acetic acid] | 0.96 | < 0%
CC(Oc1cc(-c2ccccc2)c2cc(CCc3ccccc3)ccc2n1)C(=O)O (stereo not shown) [2-{[4-phenyl-6-(2-phenylethyl)quinolin-2-yl]oxy}propanoic acid] | 1.21 | 34.1%
CCCCc1ccc2nc(N3CCOC(C(=O)O)C3)cc(-c3ccccc3)c2c1 (stereo not shown) [4-(6-butyl-4-phenylquinolin-2-yl)morpholine-2-carboxylic acid] | 1.07 | 21.1%
CCCCCCc1ccc2nc(N(C)CC(=O)O)cc(Oc3ccncc3)c2c1 [2-{[6-hexyl-4-(pyridin-4-yloxy)quinolin-2-yl](methyl)amino}acetic acid] | 1.02 | 10.7%
CC(C)(c1cc(-c2ccccc2)c2cc(CCc3ccccc3)ccc2n1)c1nnn[nH]1 [4-phenyl-6-(2-phenylethyl)-2-[2-(1H-1,2,3,4-tetrazol-5-yl)propan-2-yl]quinoline] | 1.2 | 75%
CCCCc1ccc2nc(OCC(=O)O)cc(-c3ccccc3)c2c1 [2-[(6-butyl-4-phenylquinolin-2-yl)oxy]acetic acid] | 1.12 | 11.3%
CCCCCCc1ccc2nc(N(C)CC(=O)O)cc(-c3cccnc3)c2c1 [2-{[6-hexyl-4-(pyridin-3-yl)quinolin-2-yl](methyl)amino}acetic acid] | 1.28 | 71.3%
CN(CC(=O)O)c1cc(-c2ccncc2)c2cc(CCc3ccccn3)ccc2n1 [2-[methyl({6-[2-(pyridin-2-yl)ethyl]-4-(pyridin-4-yl)quinolin-2-yl})amino]acetic acid] | 1.06 | 16.1%

SMILES | fold induction at 10 µM [1] | inhibition at 1085 µM (stock) [2]
CN(CC(=O)O)c1cc(-c2ccccc2)c2cc(CCc3ccc(Cl)cc3)ccc2n1 [2-({6-[2-(4-chlorophenyl)ethyl]-4-phenylquinolin-2-yl}(methyl)amino)acetic acid] | 1.43 | 56.4%
CCCCc1ccc2nc(N(C)CC(C)C(=O)O)cc(-c3cccnc3)c2c1 (stereo not shown) [3-{[6-butyl-4-(pyridin-3-yl)quinolin-2-yl](methyl)amino}-2-methylpropanoic acid] | 1.13 | 46.4%
CCc1ccc2nc(N(C)CC(=O)O)cc(-c3cccc(C#N)c3)c2c1 [2-{[4-(3-cyanophenyl)-6-ethylquinolin-2-yl](methyl)amino}acetic acid] | 1.16 | 50.8%
CCCCCCc1ccc2nc(N(C)CC(=O)O)cc(Oc3cccnc3)c2c1 [2-{[6-hexyl-4-(pyridin-3-yloxy)quinolin-2-yl](methyl)amino}acetic acid] | 1.33 | 85%
CCCCc1ccc2nc(N(C)C(C(=O)O)C(C)C)cc(-c3cccc(C#N)c3)c2c1 (stereo not shown) [N-(6-butyl-4-(3-cyanophenyl)quinolin-2-yl)-N-methylvaline?] | 1.18 | 21%
CCCCCCc1ccc2nc(N3CCCC(C(=O)O)C3)cc(-c3ccccc3)c2c1 (stereo not shown) [1-(6-hexyl-4-phenylquinolin-2-yl)piperidine-3-carboxylic acid] | 1.16 | 88.3%
CCCCCCc1ccc2nc(N(C)CC(=O)O)c(C)c(-c3ccc(F)cc3)c2c1 [2-([4-(4-fluorophenyl)-6-hexyl-3-methylquinolin-2-yl](methyl)amino}acetic acid] | 1.19 | 111%
CN(CC(=O)O)c1cc(-c2ccccc2)c2cc(CCc3cnc4ccccc4n3)ccc2n1 [2-[methyl({4-phenyl-6-[2-(quinoxalin-2-yl)ethyl]quinolin-2-yl})amino]acetic acid] | 1.28 | 33.6%
CN(CC(=O)O)c1cc(-c2cccc(C(N)=O)c2)c2cc(Br)ccc2n1 [2-{[6-bromo-4-(3-carbamoylphenyl)quinolin-2-yl](methyl)amino}acetic acid] | 1.1 | 93.8%
CN(CC(=O)O)c1cc(-c2ccccc2)c2cc(CCc3cccc(Cl)c3)ccc2n1 [2-({6-[2-(3-chlorophenyl)ethyl]-4-phenylquinolin-2-yl}(methyl)amino)acetic acid] | 1.47 | 57.1%
CCCCc1ccc2nc(N(C)CC(C)C(=O)O)cc(-c3ccccc3)c2c1 (stereo not shown) [3-[(6-butyl-4-phenylquinolin-2-yl)(methyl)amino]-2-methylpropanoic acid] | 1.34 | 74.7%
CCCCCc1ccc2nc(N(C)CC(=O)O)cc(-c3ccc(F)cc3)c2c1 [2-{[4-(4-fluorophenyl)-6-pentylquinolin-2-yl](methyl)amino}acetic acid] | 1.34 | 80.9%
CCc1ccc2nc(N(C)CC(=O)O)cc(-c3ccccc3)c2c1 [2-[(6-ethyl-4-phenylquinolin-2-yl)(methyl)amino]acetic acid] | 1.12 | 103%
CCCCCCc1ccc2nc(N(C)CC(=O)O)ccc2c1 [2-[(6-hexylquinolin-2-yl)(methyl)amino]acetic acid] | 1.15 | 53.3%
CCCCCCCCc1ccc2nc(N(C)CC(=O)O)cc(Oc3ccc(F)cc3)c2c1 [2-{[4-(4-fluorophenoxy)-6-octylquinolin-2-yl](methyl)amino}acetic acid] | 1.41 | 78.7%
CC(C(=O)O)N(C)c1cc(-c2ccccc2)c2cc(Cl)ccc2n1 (stereo not shown) [2-[(6-chloro-4-phenylquinolin-2-yl)(methyl)amino]propanoic acid] | 1.18 | 97.4%
CN(CC(=O)O)c1cc(-c2ccccc2)c2cc(CCc3cccnc3)ccc2n1 [2-[methyl({4-phenyl-6-[2-(pyridin-3-yl)ethyl]quinolin-2-yl})amino]acetic acid] | 1.41 | 32%
CCCCCCc1ccc2nc(OC(C)C(=O)O)cc(-c3ccncc3)c2c1 (stereo not shown) [2-{[6-hexyl-4-(pyridin-4-yl)quinolin-2-yl]oxy}propanoic acid] | 1.3 | 21%
CCCCCCc1ccc2nc(-n3ccc(C(=O)O)c3)cc(-c3ccccc3)c2c1 [1-(6-hexyl-4-phenylquinolin-2-yl)-1H-pyrrole-3-carboxylic acid] | 1.09 | < 0%
